In paper PMC11602115 (Journal of Medicinal Chemistry, 2017):

Experiments:
[1] = system: human platelet; experiment: Inhibition of ADP-induced human platelet aggregation; format: cell-based; details: aggregation induced by 2.5 μM ADP, mean of at least two determinations
Experimental: Such aggregated and activated platelets produce vasoactive substances such as thromboxane and serotonin that may cause harmful vasoconstriction and vascular remodeling.[13] […] This secondary assay was carried out as previously described,[14] with aggregation induced by 2.5 μM ADP in the presence or absence of IP receptor agonists.

[2] = target: T1, rat IP (Rattus norvegicus, UniProt P43253); experiment: HTRF cAMP assay, recombinant rat IP receptor; format: cell-based; design: expressed in transfected cells
Experimental: (§1) The new compounds were tested for functional agonist activity in a standard (Cisbio) cAMP assay using recombinant IP or DP1 receptors stably expressed in CHO-K1 cells. Clonal cell lines were derived following standard protocols, but receptor expression levels were kept to a minimum to preclude receptor reserve effects.
(§2) For development of cAMP accumulation assays, recombinant IP or DP1 receptors were stably expressed in CHO-K1 cells and clonal cell lines derived following standard protocols. Receptor expression levels were minimized to preclude receptor reserve effects. HTRF cAMP assays were performed according to the manufacturer’s instructions (Cisbio, cAMP Dynamic 2 assay kit; no. 62AM4PEJ). IP receptor-expressing cells were harvested, resuspended in assay buffer (PBS containing 1 mM IBMX and 0.2% BSA) at a density of 200 000 cells per mL, and dispensed into 384-well assay plates (PerkinElmer Proxiplate no. 6008280) at 5 μL per well. Test compounds were solubilized and serially diluted in DMSO using 5-fold dilutions to generate a 10-point dose–response curve with a top concentration of 10 μM. The samples were then further diluted in PBS to achieve a 2× stock. Diluted compounds were then transferred to a triplicate set of assay plates (5 μL per well). After a 1 h incubation at room temperature, 5 μL of cAMP-D2 reagent diluted in lysis buffer was added to each well followed by 5 μL of cryptate reagent. Plates were then incubated at room temperature for 1 h prior to reading. Time-resolved fluorescence measurements were collected on PerkinElmer Envision or BMG Pherastar microplate readers.

[3] = target: T2, IP (Homo sapiens, UniProt P43119); experiment: HTRF cAMP assay, recombinant human IP receptor stably expressed in CHO-K1 cells; format: cell-based; design: expressed in transfected cells; details: for Emax: CHO-K1, read-out: hIP % IA; for EC50: HTRF (cAMP) human IP receptor assay, mean of at least three determinations
Experimental: as §1, §2

[4] = system: prostaglandin receptors other than DP1; experiment: Panel assays of prostaglandin receptors in melanophores; format: cell-based
[5] = Stability in rat microsome preparations; format: in vitro ADME; details: incubation at 37 °C, rat microsomes; read-out: rat MS, T1/2
From the text: (§3) Table 1 Screening Data for Selected Analogues ^a | column: human and rat MS, T1/2 (min) ^g

[6] = target: T3, human DP1 receptor (Homo sapiens, UniProt Q13258); experiment: HTRF cAMP assay, recombinant human DP1 receptor in CHO-K1 cells; format: cell-based
T3 construct: expressed in transfected cells
T3 sequence (Q13258 1-359): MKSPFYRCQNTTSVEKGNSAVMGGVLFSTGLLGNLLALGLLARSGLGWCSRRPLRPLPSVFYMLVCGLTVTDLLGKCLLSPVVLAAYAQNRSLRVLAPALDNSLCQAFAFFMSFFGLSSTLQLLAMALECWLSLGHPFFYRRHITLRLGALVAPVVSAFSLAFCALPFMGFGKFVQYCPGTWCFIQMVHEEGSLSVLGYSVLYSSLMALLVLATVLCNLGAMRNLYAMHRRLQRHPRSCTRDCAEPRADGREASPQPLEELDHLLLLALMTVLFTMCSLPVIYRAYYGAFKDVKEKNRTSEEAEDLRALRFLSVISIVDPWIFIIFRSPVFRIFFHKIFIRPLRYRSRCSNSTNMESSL
Experimental: as §1, §2

[7] = Stability in human microsome preparations; format: in vitro ADME; details: incubation at 37 °C, human microsomes; read-out: human MS, T1/2
From the text: as §3

[8] = Metabolite profile of 5c in the rat; format: in vivo; details: rat, after dosing of 5c
From the text: (§4) A taurine-conjugated metabolite was subsequently identified in bile (M1, Figure 4), which was also observed in circulating plasma, although at much lower concentrations (∼5%) compared to parent. Further, two oxidized products, one of which was also a taurine-conjugate, were identified (M2 and M3) in plasma. […] It is known that taurine can be conjugated to bile acids and these conjugates may be hydrolyzed in the gut which allows for bile acid reabsorbtion.[19]

[9] = Incubation in simulated gastric fluid; format: physicochemical; details: room temperature, 3 h
From the text: as §4

[10] = target: T2, IP; experiment: Radioligand binding, human IP ([3H]-iloprost); design: expressed in transfected cells; host or cells: CHO-K1 (crude membranes); details: Figure 4; read-out: Ki hIP
Experimental: (§5) CHO-K1 cells expressing recombinant IP receptors were harvested, washed with ice-cold phosphate buffered saline, pH 7.4 (PBS), and then centrifuged at 48 000g for 20 min at 4 °C. The resulting cell pellet was then resuspended in ice-cold PBS containing 20 mM HEPES, pH 7.4, and 0.1 mM EDTA, homogenized on ice using a Brinkman Polytron, and centrifuged (48 000g for 20 min at 4 °C). This resuspension and centrifugation process was repeated one further time. Crude membrane pellets were stored at −80 °C until used for radioligand binding assays.
(§6) Assay incubations were terminated by rapid filtration through PerkinElmer GF/C filtration plates pretreated with 0.3% PEI, under vacuum pressure using a 96-well Packard filtration apparatus, followed by multiple washes with ice-cold wash buffer (PBS containing 20 mM HEPES and 0.1 mM EDTA, pH 7.4). Plates were then dried at 45 °C for a minimum of 2 h. Finally, 25 μL of BetaScint scintillation cocktail was added to each well and plates were counted in a Packard TopCount scintillation counter. In each competition study, test compounds were dosed at 10 concentrations with triplicate determinations at each test concentration.

[11] = target: T3, human DP1 receptor; details: earlier series; cited from earlier work
[12] = target: T1, rat IP; experiment: Radioligand binding, rat IP ([3H]-iloprost); design: expressed in transfected cells; host or cells: CHO-K1 (crude membranes); details: radioligand, recombinant receptor membranes; read-out: measured Kd, rat IP
Experimental: as §5
as §6, with “concentration. A reference compound, typically iloprost, was included in every runset for quality control purposes.” for “concentration.”

[13] = target: dog IP (Canis lupus familiaris, UniProt A0A8I3MUB8); experiment: Radioligand binding, dog IP ([3H]-iloprost); details: radioligand, recombinant receptor membranes; read-out: measured Kd, dog IP
Experimental: as §5
as §6, with “concentration. A reference compound, typically iloprost, was included in every runset for quality control purposes.” for “concentration.”

[14] = target: monkey IP; experiment: Radioligand binding, monkey IP ([3H]-iloprost); details: radioligand, recombinant receptor membranes; read-out: measured Kd, monkey IP
Experimental: as §5, §6

T2 sequence (P43119 whole entry): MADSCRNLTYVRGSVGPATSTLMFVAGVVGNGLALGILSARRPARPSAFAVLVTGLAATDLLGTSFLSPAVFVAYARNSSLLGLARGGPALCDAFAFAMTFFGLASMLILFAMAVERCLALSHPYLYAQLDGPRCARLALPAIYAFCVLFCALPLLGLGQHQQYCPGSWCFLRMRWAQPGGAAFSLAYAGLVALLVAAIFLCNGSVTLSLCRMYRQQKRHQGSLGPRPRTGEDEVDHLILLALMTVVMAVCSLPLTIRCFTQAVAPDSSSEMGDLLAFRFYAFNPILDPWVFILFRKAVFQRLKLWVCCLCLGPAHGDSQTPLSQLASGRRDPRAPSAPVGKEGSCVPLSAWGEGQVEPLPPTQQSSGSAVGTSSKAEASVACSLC
T1 sequence (P43253 whole entry): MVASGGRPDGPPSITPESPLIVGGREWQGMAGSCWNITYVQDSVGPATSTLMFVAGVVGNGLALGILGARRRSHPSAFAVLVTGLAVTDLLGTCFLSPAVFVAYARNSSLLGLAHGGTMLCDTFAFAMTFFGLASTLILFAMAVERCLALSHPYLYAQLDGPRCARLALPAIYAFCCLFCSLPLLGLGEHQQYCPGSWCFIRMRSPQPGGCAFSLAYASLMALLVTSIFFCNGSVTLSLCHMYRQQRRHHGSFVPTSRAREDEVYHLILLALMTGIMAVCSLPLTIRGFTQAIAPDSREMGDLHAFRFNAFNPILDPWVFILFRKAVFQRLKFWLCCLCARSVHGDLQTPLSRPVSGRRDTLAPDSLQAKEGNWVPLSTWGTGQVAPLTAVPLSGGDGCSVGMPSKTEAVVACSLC
dog IP, sequence (A0A8I3MUB8 1-381): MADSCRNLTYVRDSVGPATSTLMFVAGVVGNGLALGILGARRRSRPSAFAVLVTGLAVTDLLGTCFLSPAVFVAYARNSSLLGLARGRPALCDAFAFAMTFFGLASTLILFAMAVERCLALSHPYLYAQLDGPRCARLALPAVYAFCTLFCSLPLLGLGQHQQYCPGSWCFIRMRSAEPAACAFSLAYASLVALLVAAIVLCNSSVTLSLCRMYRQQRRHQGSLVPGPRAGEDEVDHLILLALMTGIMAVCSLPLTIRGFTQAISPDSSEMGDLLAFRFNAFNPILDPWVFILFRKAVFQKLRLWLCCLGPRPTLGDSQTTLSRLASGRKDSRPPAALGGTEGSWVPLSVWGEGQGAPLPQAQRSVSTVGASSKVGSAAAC

Molecule: O=C(O)COC[C@H]1CC[C@H](COC(=O)N(c2ccccc2)c2ccccc2)CC1 [5a, 2-(((1r,4r)-4-((Diphenylcarbamoyloxy)methyl)cyclohexyl)methoxy)acetic Acid]
- IC50 [1]: 25 nM
- EC50 ([2]; HTRF (cAMP) rat IP receptor assay, mean of at least three determinations): 365 nM
- Emax ([2]; read-out: rIP % IA): 89%
- Emax [3]: 77%
- EC50 [3]: 21 nM
- activity at prostaglandin receptors other than DP1 [4]: no activity
- half-life [5]: > 1 h
- Emax ([6]; CHO-K1, intrinsic activity relative to 1 μM PGD2, read-out: hDP1 % IA): 59%
- EC50 ([6]; HTRF (cAMP) human DP1 receptor assay, mean of at least three determinations, read-out: EC50 hDP1): 355 nM
- half-life [7]: > 1 h

Molecule: O=C(COC[C@H]1CC[C@H](COC(=O)N(c2ccccc2)c2ccc(Cl)cc2)CC1)NCCS(=O)(=O)O [M1, 2-(2-(((1r,4r)-4-(((4-Chlorophenyl)(phenyl)carbamoyloxy)methyl)cyclohexyl)methoxy)acetamido)ethanesulfonic Acid]
- concentration in circulating plasma compared to parent [8]: ~5%
- Emax [3]: 76%
- EC50 [3]: 930 nM
- chemical degradation to the parent in simulated gastric fluid [9]: little chemical degradation
- Ki [10]: 400 nM

Molecule: O=C(O)COc1cccc2c1CC[C@H](Cn1ncc(-c3cccc(F)c3F)c(-c3ccc(F)cc3)c1=O)C2 [compound 3]
- IP to DP1 selectivity ratio [11]: 8 fold

Molecule: [^3H]-iloprost [reference compound]
- Kd [12]: 7 nM
- Kd [13]: 15.4 nM
- Kd [14]: 11.9 nM
